Reference: patent US20260028336A1 (Arcus Biosciences, Inc., priority 2022, published 2026)

Tests used:
Jurkat cells = test: IL-2 secretion assay in CD3/CD28-activated Jurkat cells (AlphaLISA); assay type: cell-based; details: Homo sapiens, CD3/CD28 T Cell Activator, 24 h, IL-2 AlphaLISA
Procedure, shortened: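 Jurkat cells (50,000/well) were preincubated 1 h at 37° C with compound in a 16-point 1:2 series spanning 10 μM to 300 pM final. Cells were then activated with CD3/CD28 T cell activator, and secreted IL-2 was read by AlphaLISA. EC50 came from 4-parameter logistic fits.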

Cbl-b = target: T1, Cbl-b (Homo sapiens, UniProt Q13191); test: Cbl-b probe displacement HTRF binding assay; details: 0.4 nM biotinylated Cbl-b, 150 nM BODIPY probe
T1 construct: biotin (biotinylated)
Procedure, shortened: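 Biotinylated Cbl-b was preincubated with compound for 60 min at room temperature in HEPES/NaCl/Triton/TCEP/BSA buffer. BODIPY probe was added for 15 min, followed by streptavidin-terbium, and the HTRF signal was read. Displacement was normalised to DMSO and no-protein controls, and affinity was obtained from a four-parameter dose-response fit.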

T1 sequence (Q13191 whole entry, species assumed): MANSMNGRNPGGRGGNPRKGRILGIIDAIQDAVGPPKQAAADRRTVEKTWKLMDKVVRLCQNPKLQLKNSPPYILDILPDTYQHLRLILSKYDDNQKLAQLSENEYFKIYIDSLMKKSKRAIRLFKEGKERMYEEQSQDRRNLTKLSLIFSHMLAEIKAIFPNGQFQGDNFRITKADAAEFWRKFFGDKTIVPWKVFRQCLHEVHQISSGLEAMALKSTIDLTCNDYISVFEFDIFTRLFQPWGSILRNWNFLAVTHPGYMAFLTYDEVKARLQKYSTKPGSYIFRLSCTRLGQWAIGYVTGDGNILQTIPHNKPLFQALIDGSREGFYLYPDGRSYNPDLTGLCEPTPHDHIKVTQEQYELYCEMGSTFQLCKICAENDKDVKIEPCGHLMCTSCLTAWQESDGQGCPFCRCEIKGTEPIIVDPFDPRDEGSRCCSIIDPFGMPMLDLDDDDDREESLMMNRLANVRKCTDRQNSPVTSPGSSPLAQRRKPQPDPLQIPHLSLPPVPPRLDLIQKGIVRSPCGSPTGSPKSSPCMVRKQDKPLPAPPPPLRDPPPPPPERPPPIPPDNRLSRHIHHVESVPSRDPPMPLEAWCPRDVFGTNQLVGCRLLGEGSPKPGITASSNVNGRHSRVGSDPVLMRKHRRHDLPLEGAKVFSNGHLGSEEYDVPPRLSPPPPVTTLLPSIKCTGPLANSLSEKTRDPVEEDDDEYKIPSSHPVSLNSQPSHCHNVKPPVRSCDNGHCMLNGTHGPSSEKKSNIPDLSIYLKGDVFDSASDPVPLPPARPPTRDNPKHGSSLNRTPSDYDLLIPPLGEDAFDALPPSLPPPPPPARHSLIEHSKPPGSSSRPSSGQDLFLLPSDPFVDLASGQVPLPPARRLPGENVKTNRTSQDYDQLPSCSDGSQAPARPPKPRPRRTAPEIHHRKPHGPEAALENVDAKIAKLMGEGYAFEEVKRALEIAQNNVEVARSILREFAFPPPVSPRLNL

Compound | EC50 (Jurkat cells) [µM] | IC50 (Cbl-b) [µM]
Cc1nnc(C2(c3cccc(-n4cc(C5CC5)c5cc(CN6CCC[C@H](C)C6)[nH]c5c4=O)c3)CC(F)(F)C2)n1C [Example 125, 4-cyclopropyl-6-[3-[1-(4,5-dimethyl-1,2,4-triazol-3-yl)-3,3-difluorocyclobutyl]phenyl]-2-[[(3S)-3-methylpiperidin-1-yl]methyl]-1H-pyrrolo[2,3-c]pyridin-7-one] | 1 to 5 | 1 to 5
C[C@H]1CCCN(Cc2cc3c(C4CC4)cn(-c4cccc(C5(c6ncco6)CC(F)(F)C5)c4)c(=O)c3[nH]2)C1 [Example 127, 4-cyclopropyl-6-[3-[3,3-difluoro-1-(1,3-oxazol-2-yl)cyclobutyl]phenyl]-2-[[(3S)-3-methylpiperidin-1-yl]methyl]-1H-pyrrolo[2,3-c]pyridin-7-one] | 0.1 to 1 | 0.1 to 1
C[C@H]1CCCN(Cc2cc3c(C4CC4)cn(-c4cccc(C5(c6nccn6C)CC(F)(F)C5)c4)c(=O)c3[nH]2)C1 [Example 128, 4-cyclopropyl-6-[3-[3,3-difluoro-1-(1-methylimidazol-2-yl)cyclobutyl]phenyl]-2-[[(3S)-3-methylpiperidin-1-yl]methyl]-1H-pyrrolo[2,3-c]pyridin-7-one] | 0.1 to 1 | < 0.1
Cn1nccc1-c1c[nH]c2c(=O)n(-c3cccc([C@]4(c5nncn5C)C[C@@H](C)C4)c3)cc(C3CC3)c12 [Example 132, 4-Cyclopropyl-3-(1-methyl-1H-pyrazol-5-yl)-6-{3-[(1R,3S)-3-methyl-1-(4-methyl-4H-1,2,4-triazol-3-yl)cyclobutyl]phenyl}-1H,6H,7H-pyrrolo[2,3-c]pyridin-7-one] | 1 to 5 | < 0.1
Cn1nncc1-c1c[nH]c2c(=O)n(-c3cccc([C@]4(c5nncn5C)C[C@@H](C)C4)c3)cc(C3CC3)c12 [Example 133, 4-Cyclopropyl-3-(1-methyl-1H-1,2,3-triazol-5-yl)-6-{3-[(1R,3S)-3-methyl-1-(4-methyl-4H-1,2,4-triazol-3-yl)cyclobutyl]phenyl}-1H,6H,7H-pyrrolo[2,3-c]pyridin-7-one] | > 5 | < 0.1

Results, then the compound that gave them:

EC50 (Jurkat cells) [µM] | IC50 (Cbl-b) [µM] | Compound
0.1 to 1 | 0.1 to 1 | C[C@H]1CCCN(Cc2cc3c(C4CC4)cn(-c4cccc(C5(Cn6ccnn6)CC(F)(F)C5)c4)c(=O)c3[nH]2)C1 [Example 123, 4-cyclopropyl-6-[3-[3,3-difluoro-1-(triazol-1-ylmethyl)cyclobutyl]phenyl]-2-[[(3S)-3-methylpiperidin-1-yl]methyl]-1H-pyrrolo[2,3-c]pyridin-7-one]
0.1 to 1 | 0.1 to 1 | C[C@H]1CCCN(Cc2cc3c(C4CC4)cn(-c4cccc(C5(Cn6cccn6)CC(F)(F)C5)c4)c(=O)c3[nH]2)C1 [Example 124]
< 0.1 | < 0.1 | C[C@H]1CCCN(Cc2cc3c(C4CC4)cn(-c4cccc([C@]5(c6nccn6C)C[C@H](F)C5)c4)c(=O)c3[nH]2)C1 [Example 126, 4-cyclopropyl-6-(3-((1r,3S)-3-fluoro-1-(1-methyl-1H-imidazol-2-yl)cyclobutyl)phenyl)-2-(((S)-3-methylpiperidin-1-yl)methyl)-1,6-dihydro-7H-pyrrolo[2,3-c]pyridin-7-one]
< 0.1 | < 0.1 | C[C@H]1CCCN(Cc2cc3c(C4CC4)cn(-c4cccc([C@]5(c6nncn6C)C[C@@H](F)C5)c4)c(=O)c3[nH]2)C1 [Example 129, cis-4-cyclopropyl-6-[3-[3-fluoro-1-(4-methyl-1,2,4-triazol-3-yl)cyclobutyl]phenyl]-2-[[(3S)-3-methylpiperidin-1-yl]methyl]-1H-pyrrolo[2,3-c]pyridin-7-one]
< 0.1 | < 0.1 | C[C@H]1CCCN(Cc2cc3c(C4CC4)cn(-c4cccc([C@]5(c6nncn6C)C[C@H](F)C5)c4)c(=O)c3[nH]2)C1 [Example 130, trans-4-cyclopropyl-6-[3-[3-fluoro-1-(4-methyl-1,2,4-triazol-3-yl)cyclobutyl]phenyl]-2-[[(3S)-3-methylpiperidin-1-yl]methyl]-1H-pyrrolo[2,3-c]pyridin-7-one]
